# Reference: patent US20050256034A1, “Dioxolane analogs for improved inter-cellular delivery” (priority 2000, published 2005)
# Legend:
# Type in all cases: cell-based
# [1] = system: CEM cells; test: CellTiter 96 cell proliferation assay, 48 h exposure; settings: Homo sapiens, CCRF-CEM, 48 h, read-out: Chemosensitivity, 50% of the dose response curve (EC50), CEM + NBMPR (100 nM), 48 h exposure, mean ± SD
# Description: The chemosensitivity of suspension cells lines (e.g., CEM or CEM-derivatives) is assessed using the CellTiter 96 ? proliferation assay. […] Chemosensitivity is expressed as 50% (ECso) of the dose response curve determined, e.g., using GraphPad Prism 2.01 (GraphPad Software, San Diego, Calif.). Adherent cell lines (e.g., DU145 or DU145^R) are seeded (˜10^5 cells) in triplicate dishes, 24 h before drug exposure. Growth inhibition is determined by trypsinization and counting cells electronically.
# [2] = system: CEM cells (es, hENT1); test: Cellular uptake assay of 3H-labelled nucleoside; settings: 30 μM, 6-min time course, compared with uridine
# Description: (§1) FIG. 1 Comparative uptake of 30 μM [^3H]-troxacitabine in CEM (Panel A) and CEM/APAC8C (Panel B) cells. [^3H]-Uridine uptake in either the presence or absence of the hENT1 inhibitor, NBMPR or 5 mM non-radioactive uridine was included for comparison as a control substrate.
# (§2) Cancer Res., 56: 4187-4191.
# (§3) The transport of [^3H]uridine was inhibited in the presence either of the hENT1 inhibitor, NBMPR, or excess non-radioactive uridine.
# [3] = system: CEM/ARAC8C cells; test: Cellular uptake assay of 3H-labelled nucleoside; settings: 30 μM, 6-min time course, compared with uridine
# Description: as §1, §2, §3
# [4] = molecular target: T1, recombinant hCNT1 (Homo sapiens, UniProt O00337); test: Uptake by recombinant transporter in transiently transfected HeLa cells; settings: 10 μM, 100 μM dilazep
# T1 construct: expressed in transfected cells; host or cells: HeLa cells, transient transfection with pcDNA3-hCNT1 (subcloned from pMHK2)
# T1 sequence (O00337 1-649): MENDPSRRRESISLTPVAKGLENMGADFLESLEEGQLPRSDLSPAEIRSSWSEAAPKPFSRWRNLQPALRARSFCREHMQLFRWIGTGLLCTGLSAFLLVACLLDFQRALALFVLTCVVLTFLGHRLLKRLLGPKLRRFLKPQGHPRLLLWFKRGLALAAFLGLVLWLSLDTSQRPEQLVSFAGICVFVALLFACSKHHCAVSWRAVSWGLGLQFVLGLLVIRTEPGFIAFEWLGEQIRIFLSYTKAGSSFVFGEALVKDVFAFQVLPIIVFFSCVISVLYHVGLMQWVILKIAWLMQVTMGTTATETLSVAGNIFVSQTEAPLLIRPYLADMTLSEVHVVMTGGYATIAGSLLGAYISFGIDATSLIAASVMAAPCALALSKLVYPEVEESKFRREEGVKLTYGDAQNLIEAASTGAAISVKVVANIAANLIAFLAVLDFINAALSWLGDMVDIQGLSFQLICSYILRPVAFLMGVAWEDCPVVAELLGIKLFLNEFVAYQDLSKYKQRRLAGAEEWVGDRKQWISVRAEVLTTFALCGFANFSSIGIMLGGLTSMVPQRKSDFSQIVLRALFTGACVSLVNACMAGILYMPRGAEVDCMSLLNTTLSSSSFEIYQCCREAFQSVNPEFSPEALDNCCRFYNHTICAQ
# Description: (§4) Transport assays were conducted in the presence of the equilibrative transport inhibitor, 100 μM dilazep and either in the presence ( ? ) or absence (▴) of […].sodium, and compared to HeLa cells transiently transfected with the empty vector control plasmic (▾)
# (§5) Expression plasmids encoding recombinant hCNT1 and hCNT2 are prepared using conventional methods. […] The expression vectors are separately introduced into actively proliferating HeLa cells, following conventional methods. See, e.g., Fang et al (1996).
# (§6) Recombinant hCNT1 and hCNT2 were separately introduced into HeLa cells by transient transfection of pcDNA3 plasmids containing the coding sequences of the relevant nucleoside transporter protein. […] Uptake of 10 μM [:H]troxacitabine was not mediated either by hCNT1 or by hCNT2.
# [5] = molecular target: T2, recombinant hCNT2 (Homo sapiens, UniProt O43868); test: as above; settings: 10 μM, 100 μM dilazep
# T2 construct: expressed in transfected cells; host or cells: HeLa cells, transient transfection with pcDNA3-hCNT2 (subcloned from pMH15)
# T2 sequence (O43868 1-658): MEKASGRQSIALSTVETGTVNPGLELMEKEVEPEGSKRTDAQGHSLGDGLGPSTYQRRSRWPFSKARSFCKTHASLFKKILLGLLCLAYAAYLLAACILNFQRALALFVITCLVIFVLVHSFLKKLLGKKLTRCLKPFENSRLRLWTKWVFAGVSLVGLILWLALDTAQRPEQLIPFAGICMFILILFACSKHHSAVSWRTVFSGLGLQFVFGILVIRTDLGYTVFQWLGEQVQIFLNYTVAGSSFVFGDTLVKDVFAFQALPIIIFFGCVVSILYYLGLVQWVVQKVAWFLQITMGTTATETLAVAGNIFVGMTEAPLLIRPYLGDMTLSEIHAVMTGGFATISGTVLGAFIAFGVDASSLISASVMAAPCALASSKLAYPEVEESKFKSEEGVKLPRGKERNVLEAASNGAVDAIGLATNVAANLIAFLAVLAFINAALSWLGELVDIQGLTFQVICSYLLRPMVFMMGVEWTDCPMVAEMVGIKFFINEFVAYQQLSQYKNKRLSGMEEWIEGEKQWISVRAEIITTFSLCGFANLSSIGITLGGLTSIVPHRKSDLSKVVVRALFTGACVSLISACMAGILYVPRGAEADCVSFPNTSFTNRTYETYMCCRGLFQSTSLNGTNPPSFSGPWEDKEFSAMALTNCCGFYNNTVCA
# Description: as §4, §5, §6
smiles,measurement,setting,value
"Nc1ccn([C@@H]2CO[C@H](CO)O2)c(=O)n1 [Troxacitabine, troxacitabine]",EC50,[1],0.21 ± 0.019 µM
same,uptake of 3H-labelled nucleoside,[2],taken up to a lesser degree
same,uptake of 3H-labelled nucleoside,[3],taken up to a lesser degree
same,uptake mediated by hCNT1,[4],not mediated
same,uptake mediated by hCNT2,[5],not mediated
